Measured values reported in patent US5648354A, “1,2-dithiins having antifungal activity” (Shaman Pharmaceuticals, Inc., priority 1995, dated 1997).
Converted amounts (≈) assume the structure as drawn.

Experiments:
Assay in all cases: In vitro antifungal activity (minimum inhibitory concentration)
Type in all cases: cell-based
[1] = tested on: Cryptococcus neoformans ATCC36556; details: read-out: Minimum Inhibitory Concentration (MIC) CN
Method: (§1) The antifungal activities of representative 1,2-dithiin compounds listed below were determined in vitro using three fungal cultures: Candida albicans ATCC10259 (CA), Cryptococcus neoformans ATCC36556 (CN), and Aspergillus fumigatus ATCC13073 (AF).
(§2) The method used to determine in vitro antifungal activity is discussed in McGinnis, M. R., Laboratory Handbook of Medical Mycology, Academic Press, New York, London, p 661 (1980); and Drouget, E.; Dupont, B.; Improvist, L.; Vivian, M. A.; and Tortorano, A. M.; "Disc Agar Diffusion and Microplate Automatized Techniques for In Vitro Evaluation of Antifungal Agents on Yeast and Sporulated Pathogenic Fungi" in In Vitro and In Vivo Evaluation of Antifungal Agents, Eds. lwata, K. and Vanden Bossche, H., Elsevier Science Publishers, New York, Oxford, p. 303 (1986).

[2] = tested on: Aspergillus fumigatus ATCC13073; details: read-out: Minimum Inhibitory Concentration (MIC) AF
Method: as §1, §2

[3] = tested on: Candida albicans ATCC10259; details: read-out: Minimum Inhibitory Concentration (MIC) CA
Method: as §1, §2

Structure (SMILES)	MIC [1] [µg/mL]	MIC [2] [µg/mL]	MIC [3] [µg/mL]
O=c1ccccn1CC1=CC=C(CO)SS1 [3-(Hydroxymethyl)-6-[(pyrid-2-one-1-yl)methyl]-1,2-dithiin]	12.5 (≈ 49.3 µM)	> 100	> 100
O=c1ccc([N+](=O)[O-])cn1CC1=CC=C(CO)SS1 [3-(Hydroxymethyl)-6-[(5-nitropyrid-2-one-1-yl)methyl]-1,2-dithiin]	100 (≈ 335 µM)	> 100	> 100
CC1(C)OCC(COCC2=CC=C(COCC(O)CO)SS2)O1 (stereo not drawn) [3-[[(2,2-Dimethyl-1,3-dioxolan-4-yl)methyloxy]methyl]-6-[methyloxy(2,3-dihydroxypropane-1-yl)]-1,2-dithiin]	> 100	> 100	> 100
O=C(OCC1=CC=C(CO)SS1)c1ccccc1 [3-(Benzoyloxymethyl)-6-(hydroxymethyl)-1,2-dithiin]	3.1 (≈ 11.1 µM)	3.1 (≈ 11.1 µM)	6.3 (≈ 22.5 µM)
O=c1ccc(O)nn1CC1=CC=C(CO)SS1 [3-(Hydroxymethyl)-6-[(3-hydroxypyridazin-6-one-1-yl)methyl]-1,2-dithiin]	> 100	> 100	> 100
OCC1=CC=C(COc2cc(C(F)(F)F)ccc2Cl)SS1 [3-(Hydroxymethyl)-6-[(2-chloro-5-trifluoromethyl-phenyloxy)methyl]-1,2-dithiin]	1.6 (≈ 4.51 µM)	6.3 (≈ 17.8 µM)	1.6 (≈ 4.51 µM)
CC1(C)OCC(COCC2=CC=C(CO)SS2)O1 (stereo not drawn) [3-(Hydroxymethyl)-6-[[(2,2-dimethyl-1,3-dioxolan-4-yl)methyloxy]methyl]-1,2-dithiin]	> 100	> 100	> 100
OCC1=CC=C(COc2nc3ccccc3nc2O)SS1 [3-(Hydroxymethyl)-6-[methyloxy[3-hydroxyquinoxalin-2-yl]]-1,2-dithiin]	25 (≈ 78 µM)	100 (≈ 312 µM)	50 (≈ 156 µM)
OCC1=CC=C(COCC(O)CO)SS1 (stereo not drawn) [3-(Hydroxymethyl)-6-[methyloxy(2,3-dihydroxypropane-1-yl)]-1,2-dithiin]	> 100	> 100	> 100
OCC1=CC=C(CSc2nnnn2-c2ccc(O)cc2)SS1 [3-(Hydroxymethyl)-6-[methylthio-[1-(4-hydroxyphenyl)tetrazol-5-yl]]-1,2-dithiin]	6.3 (≈ 17.9 µM)	12.5 (≈ 35.5 µM)	25 (≈ 70.9 µM)
CC1(C)OCC(COCC2=CC=C(COCC3COC(C)(C)O3)SS2)O1 (stereo not drawn) [3,6-Bis[[(2,2-dimethyl-1,3-dioxolan-4-yl)methyloxy]methyl]-1,2-dithiin]	> 100	> 100	> 100

The next lines start with the values.

MIC [1] [µg/mL]	MIC [2] [µg/mL]	MIC [3] [µg/mL]	Structure (SMILES)
6.3 (≈ 20.3 µM)	12.5 (≈ 40.3 µM)	6.3 (≈ 20.3 µM)	COC(=O)c1ccccc1OCC1=CC=C(CO)SS1 [3-(Hydroxymethyl)-6-[methyloxy[methyl benzoate-2-yl]]-1,2-dithiin]
6.3 (≈ 19.7 µM)	50 (≈ 156 µM)	25 (≈ 78 µM)	OCC1=CC=C(COc2ccccc2C(F)(F)F)SS1 [3-(Hydroxymethyl)-6-[(2-trifluoromethylphenyloxy)methyl]-1,2-dithiin]
3.1 (≈ 9.99 µM)	12.5 (≈ 40.3 µM)	3.1 (≈ 9.99 µM)	COC(=O)c1ccc(OCC2=CC=C(CO)SS2)cc1 [3-(hydroxymethyl)-6-[methyloxy[methyl benzoate-4-yl]]-1,2-dithiin]
12.5 (≈ 49.5 µM)	25 (≈ 99.1 µM)	25 (≈ 99.1 µM)	OCC1=CC=C(COc2ccccc2)SS1 [3-(Hydroxymethyl)-6-[(phenyloxy)methyl]-1,2-dithiin]
100 (≈ 314 µM)	100 (≈ 314 µM)	12.5 (≈ 39.3 µM)	OCC1=CC=C(COc2ccc(-n3ccnc3)cc2)SS1 [3-(hydroxymethyl)-6-[[4-(imidazol-1-yl)phenyloxy]methyl]-1,2-dithiin]
1.6 (≈ 5.92 µM)	3.1 (≈ 11.5 µM)	3.1 (≈ 11.5 µM)	OCC1=CC=C(COc2ccccc2F)SS1 [3-(Hydroxymethyl)-6-[(2-fluorophenyloxy)methyl]-1,2-dithiin]
> 100	> 100	> 100	OCC1=CC=C(COc2ccc(O)nn2)SS1 [3-(Hydroxymethyl)-6-[(3-hydroxypyridazine-6-oxy)methyl]-1,2-dithiin]
1.6 (≈ 6.32 µM)	3.1 (≈ 12.2 µM)	3.1 (≈ 12.2 µM)	OCC1=CC=C(COc2cccnc2)SS1 [3-(Hydroxymethyl)-6-[(pyridyl-3-oxy)methyl]-1,2-dithiin]
100 (≈ 373 µM)	> 100	50 (≈ 186 µM)	OCC1=CC=C(COc2cccc(O)c2)SS1 [3-(Hydroxymethyl)-6-[(3-hydroxyphenyloxy)methyl]-1,2-dithiin]
50 (≈ 169 µM)	100 (≈ 338 µM)	> 50	CN(C)c1cccc(OCC2=CC=C(CO)SS2)c1 [3-(Hydroxymethyl)-6-[[3-(N,N-dimethylamino)phenyloxy]methyl]-1,2-dithiin]
6.3 (≈ 20.3 µM)	25 (≈ 80.5 µM)	3.1 (≈ 9.99 µM)	COC(=O)c1cccc(OCC2=CC=C(CO)SS2)c1 [3-(Hydroxymethyl)-6-[methyloxy[methyl benzoate-3-yl]]-1,2-dithiin]
1.6 (≈ 5.79 µM)	6.3 (≈ 22.8 µM)	1.6 (≈ 5.79 µM)	C#Cc1cccc(OCC2=CC=C(CO)SS2)c1 [3-(Hydroxymethyl)-6-[(3-ethynylphenyloxy)methyl]-1,2-dithiin]
3.1 (≈ 12.2 µM)	3.1 (≈ 12.2 µM)	3.1 (≈ 12.2 µM)	OCC1=CC=C(COc2ccccn2)SS1 [3-(Hydroxymethyl)-6-[(pyridyl-2-oxy)methyl]-1,2-dithiin]
0.1 (≈ 0.335 µM)	0.4 (≈ 1.34 µM)	0.2 (≈ 0.67 µM)	O=[N+]([O-])c1ccc(OCC2=CC=C(CO)SS2)nc1 [3-(hydroxymethyl)-6-[(5-nitropyridyl-2-oxy)methyl]-1,2-dithiin]
